Structures can show the parent of a compound that is named as a salt.
What was measured:
Apomorphine Emesis = format: in vivo, beagle dogs; conditions: dog, apomorphine HCl 0.1 mg/kg s.c., protected if no emetic events in 1 h
Procedure: Mature beagle dogs, individually caged and weighing 10.6-14.5 kg, were used in these experiments. The animals were fed just before being dosed intravenously with drug (mg base/kg) or carrier (0.9% saline; 0.2 ml/kg). Each animal received 0.1 mg/kg apomorphine hydrochloride (1 mg/ml saline; Lilly) subcutaneously thirty minutes after administration of the test compound. […] If the animal had no emetic events, the animal was considered protected.

striatal DOPAC = test: Dopamine Turnover: striatal DOPAC response; format: in vivo, Sprague Dawley rats (male); conditions: rat; for Response of striatal DOPAC, percent change from control: intravenous
Procedure: Male Sprague Dawley rats were injected intravenously with various doses of test compound and whole brain was removed at a predetermined time after dosing. The striatum was dissected from the brain, homogenized in a buffer/organic solvent mixture, clarified with a centrifuge, and an aliquot of the supernatant analyzed for 3,4-dihydroxyphenylacetic acid (DOPAC) by high performance liquid chromatography coupled with an electrochemical detector. The results are expressed as the percent change from control. The standard deviation of the data generally required a difference of 18% from control to be statistically significant at the 0.05 level as determined by the Student's "t" test. DOPAC is a metabolite of dopamine.

Dacarbazine Emesis = format: in vivo, beagle dogs; conditions: 1.0 mg/kg IV × 2, dog; dacarbazine 10 mg/kg i.v.; protected if 2 or less emetic events in 5 h
Procedure: Mature beagle dogs (7-16 kg) were used in these experiments. The animals were individually caged with water available ad libitum. Each dog was offered 300 g of Purina Dog Chow the day of an experiment. Drug (mg base/kg) or carrier (0.9% saline; 0.2 ml/kg) was administered intravenously 30 minutes before and 120 minutes after intravenous bolus administration of 10 mg/kg dacarbazine (10 mg DTIC/ml saline; Miles Pharmaceuticals). […] If the animal suffered 2 or less emetic events, the animal was considered protected.

Apomorphine Climbing = format: in vivo, ICR-Swiss mice (male); conditions: for ED50: ip, 0.5 h, mouse, dose yielding climbing index of 100, apomorphine HCl 1 mg/kg s.c. 30 min after drug, read-out: Apomorphine Climbing 50% ED
Procedure: Male ICR-Swiss mice (Harlan Industries, Indianapolis, Ind.), weighing 25-29 g, were placed in 8×10×16 cm wire cages. After a 1 to 1.5 hour acclimatization period, drug or carrier was administered intraperitoneally. Apomorphine hydrochloride (Lilly; 1 mg/kg) or carrier (saline, 10.0 ml/kg) was administered subcutaneously 30 minutes after test compound administration. Climbing behavior was assessed 20 minutes after apomorphine injection using the following scoring system:
(0) 4 paws on the floor of the cage
(1) 1, 2, or 3 paws grasping a side of the cage
(2) 4 paws grasping a side of the cage.
Climbing indexes were calculated using the formula: [formula] 50% ED values (i.e., the dose of drug which yields a climbing index of 100) were calculated using regression equations.

Cisplatin Emesis = format: in vivo, Beagle dogs; conditions: for ED50: Canis lupus familiaris, iv, dog, drug i.v. 30 min before and 120 min after 3 mg/kg cisplatin i.v., blocked if 2 or less emetic events in 5 h
Procedure: Mature Beagle dogs of either sex, weighing 7-16 kg, were individually caged with water available ad libitum. Each animal was offered 300 g of Purina Dog Chow the day of an experiment. Drug in varying doses or carrier was administered intravenously 30 minutes before and 120 minutes after intravenous bolus administration of 3 mg/kg cisplatin (Ben Venue Laboratories, Inc., Bedford, Ohio). […] Emesis was considered blocked if the animal suffered 2 or less emetic events. Based upon these observations, ED50 values were determined for each of the compounds tested.

Catalepsy = format: in vivo, Sprague Dawley rats (female); conditions: 20 mg/kg i.v., rat, tested one and two hours later
Procedure: Female Sprague Dawley rats (Harlen Industries, Indianapolis, Ind.), weighing 160-225 g, were used. The animals (n=6) were injected intravenously with drug (20 mg/kg) or carrier (saline; 2 ml/kg) and were tested one and two hours later. This involved placing the front paws of the rat on a horizontal metal bar suspended 10 cm above the table top and recording the number of seconds, to a maximum of 60, that the animal remains in this position. Each animal was tested three times in succession and the average time the animal remained on the bar was calculated. Student's non-paired "t" test was employed to determine the significance of differences between the control and treated groups.

[1] = very high dosages, beginning prior to cisplatin and continuing through post administration; cited from earlier work

Row | SMILES | Apomorphine-induced emesis: Number Protected/Number Dosed (Apomorphine Emesis; 1.0 mg/kg IV) | Apomorphine-induced emesis: Number Protected/Number Dosed (Apomorphine Emesis; 2.0 mg/kg IV) | Response of striatal DOPAC, percent change from control (striatal DOPAC; 0.3 mg/kg) [%] | Response of striatal DOPAC, percent change from control (striatal DOPAC; 1.0 mg/kg) [%] | Response of striatal DOPAC, percent change from control (striatal DOPAC; 3.3 mg/kg) [%] | Response of striatal DOPAC, percent change from control (striatal DOPAC; 10 mg/kg) [%] | Response of striatal DOPAC, percent change from control (striatal DOPAC; 33 mg/kg) [%] | Dacarbazine-induced emesis: Number Protected/Number Dosed (Dacarbazine Emesis) | ED50 (Apomorphine Climbing) [mg/kg] | ED50 (Cisplatin Emesis) [mg/kg] | Catalepsy (Catalepsy; hydrochloride) | Apomorphine-induced emesis: Number Protected/Number Dosed (Apomorphine Emesis; 4.0 mg/kg IV) | Catalepsy (Catalepsy) | Apomorphine-induced emesis: Number Protected/Number Dosed (Apomorphine Emesis; 0.125 mg/kg IV) | Response of striatal DOPAC, percent change from control (striatal DOPAC; 0.1 mg/kg) [%] | dopamine antagonism suggested by Table 1 (in words) (striatal DOPAC; striatal DOPAC, i.v.) | dopamine antagonist activity from Table 2 (in words) (Apomorphine Climbing; apomorphine climbing and catalepsy data) | effect on emesis caused by cisplatin (in words) [1] | cisplatin antiemetic activity (in words) (Cisplatin Emesis; data in Table 2)
1 | O=C(NC[C@@H]1CCCN1)c1cc(Cl)cc2c1OCC2 [Compound 1, (L)-5-chloro-N--(2-pyrrolidinylmethyl)-2,3-dihydrobenzo[b]furan-7-carboxamide hydrochloride] | 0/2 | 2/2 | -11.6 | -0.6 | -2.5 | 91.8 | 255.4 | 4/4 | 36.2 | 0.6 | No |  |  |  |  |  |  |  | 
2 | Nc1cc2c(c(C(=O)NC[C@@H]3CCCN3)c1)OCC2 [Compound 2, (L)-5-amino-N--(2-pyrrolidinylmethyl)-2,3-dihydrobenzo[b]furan-7-carboxamide hydrochloride] |  |  | 0.0 | -6.5 | -17.3 | 0.0 | -10.7 | 4/4 | 100 | ~1.75 | No | 0/4 |  |  |  |  |  |  | 
3 | Nc1c(Cl)cc(C(=O)NC[C@@H]2CCCN2)c2c1CCO2 [Compound 3, (L)-4-amino-5-chloro-N--(2-pyrrolidinylmethyl)-2,3-dihydrobenzo[b]furan-7-carboxamide hydrochloride] | 0/4 | 0/4 | -14.4 | -10.0 | -6.2 | -2.7 | 6.4 | 4/4 | 75 | ~0.42 | No | 0/4 |  |  |  |  |  |  | 
4 | COc1cc(N)c(Cl)cc1C(=O)NC[C@@H]1CCCN1 [Compound 4, (L)-4-amino-5-chloro-2-methoxy-N--(2-pyrrolidinylmethyl)benzamide hydrochloride] | 0/4 |  | -1.9 | -3.3 | -3.7 | 13.7 | 41.6 |  | 44.5 | 1 | No |  |  |  |  |  |  |  | 
5 | CCN1CCCC1CNC(=O)c1cc(Cl)cc2c1OCC2 (centres unmarked) [Compound C-1, 5-chloro-N--(1-ethyl-2-pyrrolidinylmethyl)-2,3-dihydrobenzo[b]furan-7-carboxamide hydrochloride] |  |  |  |  |  |  |  |  | 0.91 | 1 |  |  | Yes |  |  |  |  |  | 
6 | CCN1CCCC1CNC(=O)c1cc(N)cc2c1OCC2 (centres unmarked) [Compound C-2, 5-amino-N--(1-ethyl-2-pyrrolidinylmethyl)-2,3-dihydrobenzo[b]furan-7-carboxamide hydrochloride] |  |  |  |  |  |  |  |  | 10.4 | 2.5 |  |  | No |  |  |  |  |  | 
7 | CCN1CCCC1CNC(=O)c1cc(Cl)c(N)c2c1OCC2 (centres unmarked) [Compound C-3, 4-amino-5-chloro-N--(1-ethyl-2-pyrrolidinylmethyl)-2,3-dihydrobenzo[b]furan-7-carboxamide fumarate] |  |  |  |  |  |  |  |  | 1.5 | 0.7 |  |  | Yes |  |  |  |  |  | 
8 | CCN1CCCC1CNC(=O)c1cc(Cl)c(N)cc1OC (centres unmarked) [Compound C-4, 4-amino-5-chloro-2-methoxy-N--(1-ethyl-2-pyrrolidinylmethyl)benzamide] |  |  |  |  |  |  |  |  | 0.44 | 1 |  |  | Yes |  |  |  |  |  | 
9 | CCN(CC)CCNC(=O)c1cc(Cl)c(N)cc1OC [Metoclopramide, metoclopramide, reference compound] | 4/4 |  | 12.4 | 81.2 | 192.0 | 384.6 |  | 3/4 | 1.7 | 1.1 |  |  |  | 2/4 | 1.2 | exhibits strong dopamine antagonism at doses of 1.0 mg/kg and greater | strong dopamine antagonists | effective in alleviating emesis caused by cisplatin | effective antiemetics

Source: US4772459A, “Method for controlling emesis caused by chemotherapeutic agents and antiemetic agents useful therein” (priority 1986, dated 1988)
